Reference: patent publication US20240285596A1, “SOLID DOSAGE FORMS AND DOSING REGIMENS COMPRISING (2R,3S,4S,5R)-4-[[3-(3,4-DIFLUORO-2-METHOXY-PHENYL)-4,5-DIMETHYL-5-(TRIFLUOROMETHYL) TETRAHYDROFURAN-2-CARBONYL]AMINO]PYRIDINE-2-CARBOXAMIDE” (VERTEX PHARMACEUTICALS INCORPORATED, priority 2021, published 2024)

What was measured:
human NaV 1.8 = human NaV 1.8 (Homo sapiens, UniProt Q9Y5Y9); assay: E-VIPR assay detecting and measuring NaV inhibition properties; format: cell-based; details: HEK cells expressing a truncated form of human NaV 1.8; E-VIPR membrane potential readout
Sequence of human NaV 1.8 (Q9Y5Y9 126-1722 limits assumed): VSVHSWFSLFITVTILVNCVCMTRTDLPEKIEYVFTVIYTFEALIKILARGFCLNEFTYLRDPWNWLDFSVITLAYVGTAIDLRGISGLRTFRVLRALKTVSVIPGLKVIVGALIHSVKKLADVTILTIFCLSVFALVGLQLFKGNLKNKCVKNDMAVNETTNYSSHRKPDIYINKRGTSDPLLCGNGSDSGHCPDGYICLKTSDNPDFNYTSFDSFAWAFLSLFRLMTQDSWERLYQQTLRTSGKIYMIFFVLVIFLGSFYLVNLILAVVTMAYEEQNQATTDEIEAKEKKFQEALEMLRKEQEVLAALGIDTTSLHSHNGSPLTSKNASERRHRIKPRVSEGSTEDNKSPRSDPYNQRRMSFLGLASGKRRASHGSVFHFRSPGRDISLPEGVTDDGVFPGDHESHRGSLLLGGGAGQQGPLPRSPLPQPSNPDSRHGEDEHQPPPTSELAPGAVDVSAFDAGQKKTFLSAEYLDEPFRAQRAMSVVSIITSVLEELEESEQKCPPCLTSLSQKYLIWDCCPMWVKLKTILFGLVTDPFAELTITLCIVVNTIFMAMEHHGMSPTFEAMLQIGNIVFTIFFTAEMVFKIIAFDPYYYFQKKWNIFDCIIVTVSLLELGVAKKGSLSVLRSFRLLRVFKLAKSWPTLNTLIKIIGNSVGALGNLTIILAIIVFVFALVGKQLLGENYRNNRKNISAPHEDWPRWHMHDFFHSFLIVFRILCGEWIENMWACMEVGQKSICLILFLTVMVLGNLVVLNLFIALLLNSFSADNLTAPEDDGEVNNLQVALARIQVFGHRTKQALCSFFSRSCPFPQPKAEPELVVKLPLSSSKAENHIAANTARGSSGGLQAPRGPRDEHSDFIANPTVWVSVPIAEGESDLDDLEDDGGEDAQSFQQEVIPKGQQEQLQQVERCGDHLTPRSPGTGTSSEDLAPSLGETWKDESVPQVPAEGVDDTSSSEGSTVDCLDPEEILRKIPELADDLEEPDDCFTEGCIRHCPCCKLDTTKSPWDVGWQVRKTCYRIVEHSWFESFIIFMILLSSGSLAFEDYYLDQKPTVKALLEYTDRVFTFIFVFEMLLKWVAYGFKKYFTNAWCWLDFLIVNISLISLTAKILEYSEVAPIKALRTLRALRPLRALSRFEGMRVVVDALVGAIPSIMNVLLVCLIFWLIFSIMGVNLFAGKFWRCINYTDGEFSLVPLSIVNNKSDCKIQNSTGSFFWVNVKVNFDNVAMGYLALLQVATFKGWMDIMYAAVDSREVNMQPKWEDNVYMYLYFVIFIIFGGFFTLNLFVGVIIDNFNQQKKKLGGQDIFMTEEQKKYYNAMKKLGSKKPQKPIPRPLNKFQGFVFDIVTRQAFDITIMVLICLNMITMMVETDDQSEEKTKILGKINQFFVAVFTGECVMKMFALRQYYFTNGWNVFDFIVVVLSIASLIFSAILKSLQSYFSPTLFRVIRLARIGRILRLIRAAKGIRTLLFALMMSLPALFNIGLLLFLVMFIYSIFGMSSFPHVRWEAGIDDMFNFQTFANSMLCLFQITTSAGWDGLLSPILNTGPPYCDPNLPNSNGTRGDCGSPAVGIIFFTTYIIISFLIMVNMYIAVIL
Description: Sodium ion channels are voltage-dependent proteins that can be activated by inducing membrane voltage changes by applying electric fields. The electrical stimulation instrument and methods of use, referred to as E-VIPR, are described in International Publication No. WO 2002/008748 A3 and C.-J. Huang et al. Characterization of voltage-gated sodium channel blockers by electrical stimulation and fluorescence detection of membrane potential, 24 Nature Biotech. 439-46 (2006), both of which are incorporated by reference in their entirety. The instrument comprises a microtiter plate handler, an optical system for exciting the coumarin dye while simultaneously recording the coumarin and oxonol emissions, a waveform generator, a current- or voltage-controlled amplifier, and parallel electrode pairs that are inserted into assay plate wells. […]
5 mM DiSBAC6(3), a voltage sensitive oxonol acceptor (CAS number 169211-44-3; 5-[3-(1,3-dihexylhexahydro-4,6-dioxo-2-thioxo-5-pyrimidinyl)-2-propen-1-ylidene]-1,3-dihexyldihydro-2-thioxo-4,6(1H,5H)-pyrimidinedione), in dry DMSO. The preparation of DiSBAC6(3) is analogous to that of DiSBAC4(3) as described in Voltage Sensing by Fluorescence Resonance Energy Transfer in Single Cells, Gonzalez, J. E. and Tsien, R. Y. (1995) Biophys. […]

[1] = test system: patients undergoing abdominoplasty; assay: Study in patients undergoing abdominoplasty (NCT05034952); format: in vivo, human
[2] = test system: subjects with pain following bunionectomy; assay: Randomized, double-blind, placebo-controlled study of efficacy and safety in subjects with pain following bunionectomy; details: for Mean SPID48: oral, NPRS 0-48 h
Description: Bunionectomy is a well-established, multi-dose, surgical, acute pain model. A randomized, double-blind study design was used to avoid observer bias and reduce symptoms or outcomes arising from the subjects' knowledge of treatment.
Male and female patients between the ages of 18 and 75 years (inclusive) with pain that is ≥4 on an 11-point Numeric Pain Rating Scale (NPRS) and is moderate or severe on the Verbal Categorical Rating Scale (VRS) after bunionectomy are included in the study.
The investigational drug was administered orally in 10 mg tablets. […] The investigational drug was administered every 12 hours (q12 h). A low, mid, and high dosing regime were tested. The first dose in the low dosing regime was 20 mg, and the subsequent doses were 10 mg g12 h. The first dose in the mid dosing regime was 60 mg, and the subsequent doses were 30 mg g12 h. The first dose in the high dosing regime was 100 mg, and the subsequent doses were 50 mg g12 h.
After a screening period, subjects receive a primary unilateral first metatarsal bunionectomy repair on Day minus one under regional anesthesia (Mayo and popliteal block). A continuous popliteal sciatic block infusion (0.2% ropivacaine) is started after surgery, and remains in place until approximately 3 AM on Day 1. After removal of the popliteal sciatic block, each subject is randomized when the subject requests the first dose of study drug for pain relief and reports pain ≥4 on the NPRS and moderate or severe pain on the VRS.
Randomization was stratified by site and baseline NPRS (<8 versus ≥8). To maintain the blind, all subjects receive the same number of capsules in a double-dummy design.
HB/APAP placebo capsules were administered every 6 hours (q6 h).
The final dose of HB/APAP was given 42 hours after the first dose.
11-point (0 to 10) Numeric Pain Rating Scale: NPRS scores are frequently used in bunionectomy studies and are recognized by the FDA as a valid pain intensity measure. On the 11-point NPRS, a score of 0 denotes no pain, and a score of 10 denotes the worst pain intensity imaginable. Subjects reported their pain on the 11-point NPRS immediately before their first dose of the study drug (baseline NPRS score) and at intervals over 48 hour period (i.e. 0.5, 1, 1.5, 2, 3, 4, 5, 6, 8, 12, 16, 20, 24, 28, 32, 36, 40, 44, and 48 hours (±5 minutes)) after the first dose of the study drug. Pain intensity is also recorded on the NPRS immediately before each administration of rescue medication. Pain intensity scores that are collected within 4 hours after a dose of rescue medication are deemed missing, and the missing values are imputed as the intensity recorded immediately before the administration of rescue medication.
SPID-48 is the sum of the pain intensity difference (PID) over the 48 hour time period. A pain intensity score of 0 (no pain) to 10 (worse possible pain) is obtained before starting the study and throughout the 48 time period. The pain score at each assessment time is subtracted from the baseline pain score to provide the total sum score or SPID-48. A higher SPID-48 is better and indicates a reduction in pain intensity compared to the baseline score.
4-point Verbal Categorical Rating Scale: Subjects report their pain on the 4-point VRS (none, mild, moderate, or severe) immediately before their first dose of the study drug (baseline VRS).
Safety evaluations include adverse events, clinical laboratory assessments, clinical evaluation of vital signs, electrocardiograms, and physical examinations.

[3] = High-dose: 100 mg first dose/50 mg every 12 hours, n = 60
[4] = Low-dose: 20 mg first dose/10 mg every 12 hours, n = 33
[5] = Mid-dose: 60 mg first dose/30 mg every 12 hours, n = 62

COc1c([C@H]2[C@H](C(=O)Nc3ccnc(C(N)=O)c3)O[C@@](C)(C(F)(F)F)[C@H]2C)ccc(F)c1F (single isomer, unassigned) [Compound 1]
IC50 (human NaV 1.8): < 10 nM
SPID48, in words [1]: statistically significant improvement
Mean SPID48 [2, 3]: 137.8
Mean SPID48 difference from placebo [2, 3]: 36.8
Mean SPID48 [2, 4]: 112.9
Mean SPID48 difference from placebo [2, 4]: 11.9
Mean SPID48 [2, 5]: 86.9
Mean SPID48 difference from placebo [2, 5]: −14.1
Onset of action ([2]; bunionectomy study): rapid and was sustained through the duration of assessment
SPID48 compared to placebo (primary endpoint), in words ([2]; high dose, recorded on NPRS): statistically significant improvement
